Columns and labels:
[1] = system: Nomo1 acute myeloid leukemia model; assay: Nomo1 xenograft tumor growth inhibition; format: in vivo; conditions: female SCID mice, 50 MK 4ON/3OFF/4ON, PO, alone, day 9
Method: The in vivo therapeutic effect of a CD74-targeting ADC formulated in Phosphate-Buffered Saline (PBS) is determined in Nomo1 acute myeloid leukemia model after intravenous (IV) administration. The follow compounds were tested: anti-CD74_CysmAb Fc silent_L5-P1, anti-CD74_CysmAb Fc silent and IgG1-Linker-Payload Fc silent.
Nomo1 cells, obtained from DSMZ, were cultured in RPMI supplemented with 10% FBS. 0.1 ml containing 5×10^6 cells were subcutaneously inoculated into the right flank of female SCID mice, provided by Charles River. When tumors reached the appropriate volume, mice were randomized, 6 animals per group, using Easy stat software. IgG1-Linker-Payload Fc silent, anti-CD74_CysmAb Fc silent and anti-CD74_CysmAb Fc silent_L5-P1 (30 mg/kg) were injected once IV in PBS. Venetoclax (synthetized at the Servier Research Institute—IdRS) was formulated in PEG/EtOH/Phosal (Polyethylene glycol/ethanol/phosal, 30/10/60) and administered per os (PO) daily on weekdays (50 mpk, 4ON/3OFF/4ON). Mice body weight was monitored three times a week and tumor size measured using electronic calipers. […] The last day with at least half of animals of all groups still present in the study (d9), tumor growth inhibition was calculated using the formula: […]
With DTV (Delta Tumor Volume) at Dx, calculated being TV at Dx-TV at Randomization. […]

[2] = system: Karpas422 diffuse large B-cell lymphoma model; assay: Karpas422 xenograft tumor growth inhibition; format: in vivo, mice; conditions: 50 MK 4ON/3OFF/4ON, PO, alone
Method: The in vivo therapeutic effect of a CD74-targeting ADC formulated in Phosphate-Buffered Saline (PBS) was determined in Karpas422 diffuse large B-cell lymphoma model after intravenous (IV) administration.
Karpas422 cells, obtained from ATCC, were cultured in RPMI supplemented with 20% FBS. Cells were resuspended in 100% Matrigel (BD Biosciences) and 0.1 ml containing 11×10^6 cells were subcutaneously inoculated into the right flank of female NSG mice, provided by Charles River. When tumors reached the appropriate volume, mice were randomized, 6 animals per group, using Easy stat software. IgG1-Linker-Payload Fc silent, anti-CD74_CysmAb Fc silent and anti-CD74_CysmAb Fc silent_L5-P1 (30 mg/kg) were injected once IV in PBS. Venetoclax (synthetized at the Servier Research Institute—IdRS) was formulated in PEG/EtOH/Phosal (Polyethylene glycol/ethanol/phosal, 30/10/60) and administered per os (PO) daily on weekdays (50 mpk, 4ON/3OFF/4ON). Mice body weight was monitored three times a week and tumor size measured using electronic calipers. Tumor volume was estimated by measuring the minimum and maximum tumor diameters using the formula: (minimum diameter)^2(maximum diameter)/2. The last day with at least half of control animals still present in the study (d23), tumor growth inhibition was calculated using the formula:
With DTV (Delta Tumor Volume) at Dx, calculated being TV at Dx-TV at Randomization. Response was evaluated as it follows: CR (Complete Response) if tumor size was <25 mm^3 for at least three measurements, PR (Partial Response) if tumor size was comprised between 25 mm^3 and 168.3 mm^3 (half of the starting size) for at least three measurements. Mice were sacrificed at the first measurement for which tumor volume exceeded 2000 mm^3 or at the first signs of animal health deterioration. […] SCID mice were maintained according to institutional guidelines.

[3] = system: Monomac1 acute myeloid leukemia model; assay: Monomac1 xenograft tumor growth inhibition; format: in vivo, mice; conditions: 50MK 2ON/2OFF/5ON/2OFF/4ON, PO, alone
Method: The in vivo therapeutic effect of a CD74-targeting ADC formulated in Phosphate-Buffered Saline (PBS) was determined in Monomac1 acute myeloid leukemia model after intravenous (IV) administration. The following compounds were tested: CD74-targeting ADC is anti-CD74_CysmAb Fc silent_L5-P1, IgG1-Linker-Payload Fc silent, and anti-CD74_CysmAb Fc silent.
Monomac1 cells, obtained from DSMZ, were cultured in RPMI supplemented with 10% FBS. 0.1 ml containing 5×10^6 cells were subcutaneously inoculated into the right flank of female SCID mice, provided by Charles River. When tumors reached the appropriate volume, mice were randomized, 6 animals per group, using Easy stat software. IgG1-Linker-Payload Fc silent, anti-CD74_CysmAb Fc silent and anti-CD74_CysmAb Fc silent_L5-P1 (30 mg/kg) were injected once IV in PBS. Venetoclax (synthetized at the Servier Research Institute—IdRS) was formulated in PEG/EtOH/Phosal (Polyethylene glycol/ethanol/phosal, 30/10/60) and administered per os (PO) daily on weekdays (50 mpk, 2ON/2OFF/5ON/2OFF/4ON). Mice body weight was monitored three times a week and tumor size measured using electronic calipers. Tumor volume was estimated by measuring the minimum and maximum tumor diameters using the formula: (minimum diameter)^2(maximum diameter)/2. The last day with at least half of control animals still present in the study (d16), tumor growth inhibition was calculated using the formula:
With DTV (Delta Tumor Volume) at Dx, calculated being TV at Dx-TV at Randomization. […] Mice were sacrificed at the first measurement for which tumor volume exceeded 2000 mm^3 or at the first signs of animal health deterioration. […] SCID mice were maintained according to institutional guidelines.

[4] = system: EOL1 human acute myeloid (eosinophilic) leukemia xenograft model; assay: EOL1 xenograft, CD74-L5-P1 Fc silent with venetoclax (Example 14); format: in vivo, mice
Method: EOL1 luciferase transfected cells were cultured at 37° C. in an atmosphere of 5% CO2 in air in RPMI1640 (BioConcept Ltd. Amimed) supplemented with 10% FCS (BioConcept Ltd. Amimed, #2-01 F30-1), 2 mM L-glutamine (BioConcept Ltd. Amimed, #5-10K00-H) and 1 mM sodium pyruvate (BioConcept Ltd. Amimed, #5-60F00-H), 10 mM HEPES (Gibco #11560496). To establish EOL1 xenografts cells were harvested and re-suspended in HBSS (Gibco, #14175) before injecting 100 μL containing 5×10^6 cells subcutaneously in the flanks of female SCID beige mice (Charles River, Germany). Tumor growth was monitored regularly post cell inoculation and animals were randomized into treatment groups (n=6) with a mean tumor volume of about 130 mm^3. CD74-L5-P1 Fc silent, isotype IgG1 ADC Fc silent and CD74 Fc silent antibody were administered intravenously (iv) once at the start of treatment at the doses indicated in FIG. 12 either alone or in combination with venetoclax which was administered orally (po) daily (qd) at 50 mg/kg. Doses were adjusted to individual mouse body weights. The iv dose volume was 10 ml/kg and each ADC was dissolved in 0.9% (w/v) NaCl in water. Tumor volume data on day 10 post treatment were analyzed statistically using Kruskal-Wallis rank sum test (Indigo Software). When applicable, results are presented as mean±SEM. As a measure of efficacy the % T/C value is calculated on day 10 according to:
(Δtumor volume^treated/Δtumor volume^control)*100
Tumor regression was calculated according to:
−(Δtumor volume^treated/tumor volume^treated at start)*100
Where Δtumor volumes represent the mean tumor volume on the evaluation day minus the mean tumor volume at the start of the experiment.

CC1(C)CCC(CN2CCN(c3ccc(C(=O)NS(=O)(=O)c4ccc(NCC5CCOCC5)c([N+](=O)[O-])c4)c(Oc4cnc5[nH]ccc5c4)c3)CC2)=C(c2ccc(Cl)cc2)C1 [Venetoclax]
% TGI (d9) [1]: 26.2% | % CR [2]: 0% | % PR [2]: 0% | % TGI (d23) ([2]; female NSG mice, day 23): 31.1% | % CR [3]: 0% | % PR [3]: 0% | % TGI (d16) ([3]; female SCID mice, day 16): 4.5% | T/C (%) ([4]; 50 mg/kg p.o. qd + vehicle for ADC, day 10): 90% | ΔTumor volume (mm^3) ([4]; 50 mg/kg p.o. qd + vehicle for ADC, day 10, mean): 977 mm^3 | antitumor effect (in words) ([4]; 50 mg/kg po qd alone): Limited efficacy
